Measured values: US11673897B2, “Compounds for the treatment of kinase-dependent disorders” (Exelixis, Inc., priority 2018, dated 2023)

Experiments:
Human Axl = Human Axl (Homo sapiens (Human), UniProt P30530, Q764R); experiment: Human AXL kinase assay (33P radiometric, KinaseProfiler); assay type: biochemical; conditions: 10 μM ATP
Description: (§1) Kinase activity and compound inhibition were investigated using the ^33P-Phosphoryl transfer radiometric kinase assay, performed using the KinaseProfiler™ service of Eurofins Pharma Discovery Services UK Limited. Dose-response experiments were performed using nine compound concentrations in a 96-well microtiter plate. For each assay, all compounds were prepared to a 50× final assay concentration (50 μM) in 100% DMSO, then diluted in a half-log series, with the final top concentration at 1 μM. This working stock of the compound was added to the assay well as the first component in the reaction, followed by the remaining components as detailed in the following assay protocols below. The positive control wells (100% kinase activity) contain all components of the reaction including 2% DMSO (control for solvent effects), except the compound of interest. Blank wells contain all components of the reaction, with the reference inhibitor, staurosporine. This reference compound was used to abolish kinase activity and generated the 0% kinase activity base-line. IC50 values were calculated by nonlinear regression analysis using the sigmoidal dose-response (variable slope) curve fit on XLFit version 5.3 (ID Business Solutions).
Human Axl (residues H473-A894 with Q764R, 161 nM) was incubated with 8 mM MOPS pH 7.0, 0.2 mM EDTA, 250 μM KKSRGDYMTMQIG (SEQ ID NO. 43), 10 mM magnesium acetate and 10 μM [γ-33P-ATP]. The reaction was initiated by the addition of the Mg/ATP mix. After incubation for 40 minutes at room temperature, the reaction was stopped by the addition of phosphoric acid to a concentration of 0.5%. A reaction aliquot of 10 μL was then spotted onto a P30 filtermat and washed four times for 4 minutes in 0.425% phosphoric acid and once in methanol prior to drying and scintillation counting. Incorporated ^33P was measured using the Wallac Microbeta scintillation counter (Perkin Elmer).

Met = Met (Homo sapiens (Human), UniProt P08581); experiment: Human Met kinase assay (33P radiometric, KinaseProfiler); assay type: biochemical; conditions: 10 μM ATP, read-out: c-Met IC50
Description: as §1
Human Met (residues R974-S1390 with A1209G and V1290L, 3.4 nM) was incubated with 8 mM MOPS pH 7.0, 0.2 mM EDTA, 250 μM KKKGQEEEYVFIE (SEQ ID NO. 45), 1 mM sodium orthovanadate, 5 mM […], 10 mM magnesium acetate, and 10 μM [γ-33P-ATP]. The reaction was initiated by the addition of the Mg/ATP mix. After incubation for 40 minutes at room temperature, the reaction was stopped by the addition of phosphoric acid to a concentration of 0.5%. A reaction aliquot of 10 μL was then spotted onto a P30 filtermat and washed four times for 4 minutes in 0.425% phosphoric acid and once in methanol prior to drying and scintillation counting. Incorporated 33P was measured using the Wallac Microbeta scintillation counter (Perkin Elmer).

AXL = AXL (Homo sapiens (Human), UniProt P30530); experiment: AXL autophosphorylation ELISA in A-172 cells; assay type: cell-based; conditions: cellular, Gas6-stimulated, phospho-AXL ELISA
How it was run: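 A-172 glioblastoma cells, serum-starved 24 h, took compounds for 1 h (8-point curve, 0.3% DMSO) before 15 min stimulation with 1 μg/mL recombinant human Gas6. Lysate phospho-AXL measured by ELISA against a phospho-AXL standard, normalized to DMSO (100%) and reference inhibitor (0%); IC50 from 4-parameter logistic fit.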

Mer = Mer (Homo sapiens (Human), UniProt Q12866); experiment: Human Mer kinase assay (33P radiometric, KinaseProfiler); assay type: biochemical; conditions: 10 μM ATP
Description: as §1
Human Mer (residues R557-E882 with H628Q and R794A, 0.7 nM) was incubated with 8 mM MOPS pH 7.0, 0.2 mM EDTA, 30 mM NaCl, 250 μM GGMEDIYFEFMGGKKK (SEQ ID NO. 44), 10 mM magnesium acetate, and 10 μM [γ-^33P-ATP]. The reaction was initiated by the addition of the Mg/ATP mix. After incubation for 40 minutes at room temperature, the reaction was stopped by the addition of phosphoric acid to a concentration of 0.5%. A reaction aliquot of 10 μL was then spotted onto a P30 filtermat and washed four times for 4 minutes in 0.425% phosphoric acid and once in methanol prior to drying and scintillation counting. Incorporated ^33P was measured using the Wallac Microbeta scintillation counter (Perkin Elmer).

KDR = KDR (Homo sapiens (Human), UniProt P35968); experiment: KDR autophosphorylation ELISA in HUVEC cells; assay type: cell-based; conditions: cellular, VEGF165-stimulated, phospho-KDR ELISA
How it was run: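 HUVEC, 24 h serum-free starvation; cpd 8-pt dilution, 0.3% DMSO final, 1 h; VEGF165 100 ng/mL, 5 min; cold lysis; phospho-KDR ELISA; IC50, 4PL.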

Human Axl, sequence (P30530 473-894 Q764R): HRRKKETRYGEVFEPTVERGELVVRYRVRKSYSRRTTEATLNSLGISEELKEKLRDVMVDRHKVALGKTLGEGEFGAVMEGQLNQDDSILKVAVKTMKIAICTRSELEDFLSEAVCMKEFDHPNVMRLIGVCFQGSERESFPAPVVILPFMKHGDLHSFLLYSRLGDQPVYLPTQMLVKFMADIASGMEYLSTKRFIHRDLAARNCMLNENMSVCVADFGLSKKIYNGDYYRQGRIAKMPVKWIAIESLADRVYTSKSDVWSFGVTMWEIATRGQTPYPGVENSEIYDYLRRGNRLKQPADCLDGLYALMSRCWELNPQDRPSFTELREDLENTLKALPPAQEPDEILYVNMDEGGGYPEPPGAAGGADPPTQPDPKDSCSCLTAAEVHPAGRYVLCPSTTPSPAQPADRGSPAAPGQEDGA
KDR, sequence (P35968 20-1356): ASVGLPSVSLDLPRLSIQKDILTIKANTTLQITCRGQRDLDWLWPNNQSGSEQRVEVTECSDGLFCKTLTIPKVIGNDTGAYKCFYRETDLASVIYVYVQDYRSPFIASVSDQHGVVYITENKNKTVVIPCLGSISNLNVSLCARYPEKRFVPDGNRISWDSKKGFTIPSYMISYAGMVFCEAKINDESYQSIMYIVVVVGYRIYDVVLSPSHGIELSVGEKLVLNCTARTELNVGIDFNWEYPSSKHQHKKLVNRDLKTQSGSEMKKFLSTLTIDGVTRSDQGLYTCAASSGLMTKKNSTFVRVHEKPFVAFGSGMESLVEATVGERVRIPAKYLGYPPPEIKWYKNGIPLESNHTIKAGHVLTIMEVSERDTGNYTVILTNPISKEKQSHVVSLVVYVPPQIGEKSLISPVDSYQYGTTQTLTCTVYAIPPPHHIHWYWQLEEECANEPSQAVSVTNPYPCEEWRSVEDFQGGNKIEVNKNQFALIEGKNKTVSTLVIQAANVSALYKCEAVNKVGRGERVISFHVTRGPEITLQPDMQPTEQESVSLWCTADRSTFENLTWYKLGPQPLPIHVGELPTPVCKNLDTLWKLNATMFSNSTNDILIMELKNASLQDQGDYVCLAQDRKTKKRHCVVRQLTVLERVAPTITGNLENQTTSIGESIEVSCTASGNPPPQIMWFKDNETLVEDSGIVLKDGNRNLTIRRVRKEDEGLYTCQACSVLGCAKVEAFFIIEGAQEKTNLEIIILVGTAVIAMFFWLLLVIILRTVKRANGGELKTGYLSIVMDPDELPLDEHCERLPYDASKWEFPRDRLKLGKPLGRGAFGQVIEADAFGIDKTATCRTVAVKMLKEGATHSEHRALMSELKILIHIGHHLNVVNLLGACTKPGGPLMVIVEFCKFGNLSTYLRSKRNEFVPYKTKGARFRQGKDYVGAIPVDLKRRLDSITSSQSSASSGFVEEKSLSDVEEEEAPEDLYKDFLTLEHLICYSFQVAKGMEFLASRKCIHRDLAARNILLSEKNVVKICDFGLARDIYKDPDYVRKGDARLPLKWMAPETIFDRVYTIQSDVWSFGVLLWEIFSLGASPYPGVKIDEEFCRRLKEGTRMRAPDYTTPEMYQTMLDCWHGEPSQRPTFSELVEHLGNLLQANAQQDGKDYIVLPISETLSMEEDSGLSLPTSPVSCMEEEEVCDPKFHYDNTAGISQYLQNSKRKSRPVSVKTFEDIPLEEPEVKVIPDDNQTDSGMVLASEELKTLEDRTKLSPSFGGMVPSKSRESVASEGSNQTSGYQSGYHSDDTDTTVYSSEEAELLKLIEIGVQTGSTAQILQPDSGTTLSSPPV
AXL, sequence (P30530 26-894): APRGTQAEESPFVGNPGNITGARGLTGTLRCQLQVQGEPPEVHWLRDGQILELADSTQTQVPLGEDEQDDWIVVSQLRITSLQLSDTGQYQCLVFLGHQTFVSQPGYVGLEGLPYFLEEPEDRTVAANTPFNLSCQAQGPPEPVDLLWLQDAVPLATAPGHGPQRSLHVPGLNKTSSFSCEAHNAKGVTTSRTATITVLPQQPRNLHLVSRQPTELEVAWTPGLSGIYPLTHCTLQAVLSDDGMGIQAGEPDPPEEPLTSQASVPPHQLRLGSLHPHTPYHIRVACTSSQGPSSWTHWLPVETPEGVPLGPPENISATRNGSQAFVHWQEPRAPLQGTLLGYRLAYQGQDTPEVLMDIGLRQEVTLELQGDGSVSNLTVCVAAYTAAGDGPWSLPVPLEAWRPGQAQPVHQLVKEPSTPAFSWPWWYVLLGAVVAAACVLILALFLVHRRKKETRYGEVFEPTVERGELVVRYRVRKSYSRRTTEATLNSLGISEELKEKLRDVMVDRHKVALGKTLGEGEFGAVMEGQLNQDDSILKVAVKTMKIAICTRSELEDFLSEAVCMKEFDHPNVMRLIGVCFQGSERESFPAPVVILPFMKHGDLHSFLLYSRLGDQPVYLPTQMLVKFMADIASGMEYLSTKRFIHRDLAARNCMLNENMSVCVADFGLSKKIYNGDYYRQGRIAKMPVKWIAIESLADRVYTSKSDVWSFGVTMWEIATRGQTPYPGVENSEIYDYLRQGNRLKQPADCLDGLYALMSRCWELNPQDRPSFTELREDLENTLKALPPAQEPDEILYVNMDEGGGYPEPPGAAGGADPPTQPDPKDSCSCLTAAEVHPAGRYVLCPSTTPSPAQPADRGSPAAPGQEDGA
Mer, sequence (Q12866 557-882): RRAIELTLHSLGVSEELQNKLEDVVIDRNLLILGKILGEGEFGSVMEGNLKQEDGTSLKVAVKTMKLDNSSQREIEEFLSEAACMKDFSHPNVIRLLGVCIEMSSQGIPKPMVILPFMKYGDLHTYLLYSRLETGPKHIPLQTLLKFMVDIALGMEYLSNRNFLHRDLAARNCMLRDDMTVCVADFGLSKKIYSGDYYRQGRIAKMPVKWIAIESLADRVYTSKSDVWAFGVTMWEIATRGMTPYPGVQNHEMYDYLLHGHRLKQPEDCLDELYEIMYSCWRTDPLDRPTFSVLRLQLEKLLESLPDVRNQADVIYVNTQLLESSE

COc1cc2nccc(Oc3ncc(NC(=O)C4(C(=O)Nc5ccc(F)cc5)CC4)cc3Cl)c2cc1C(=O)O [Compound 14, 4-[3-Chloro-5-[[1-[(4-fluorophenyl)carbamoyl]cyclopropanecarbonyl]amino]pyridin-2-yl]oxy-7-methoxyquinoline-6-carboxylic acid]
IC50 (Human Axl): 100 to 1000 nM | IC50 (Met): 10 to 100 nM | IC50 (AXL): > 300 nM | IC50 (Mer): 100 to 1000 nM | IC50 (KDR): > 300 nM
